In EPA's ToxRefDB 2:

How the values were obtained:
rat [1] = details: Sub-acute repeat dose toxicity, Oral, Gavage/Intubation, dose end: 7 day, group: systemic
rat [2] = details: Sub-acute repeat dose toxicity, Oral, Gavage/Intubation, dose end: 28 day, group: systemic
dog [3] = details: Sub-acute repeat dose toxicity, beagle, Oral, Gavage/Intubation, dose end: 28 day, group: systemic
dog [4] = details: Chronic toxicity, beagle, Oral, Gavage/Intubation, dose end: 12 month, group: systemic
rabbit = details: Prenatal developmental toxicity study, new zealand white, Oral, Gavage/Intubation, dose end: 18 GD
rat [5] = details: Subchronic dermal toxicity, sprague dawley, Topical, dose end: 90 day, group: systemic
rat [6] = details: Prenatal developmental toxicity study, sprague dawley, Oral, Gavage/Intubation, dose end: 15 GD
mouse = details: Carcinogenicity; cd1; Oral; Feed; dose end: 78 week; group: systemic; systemic / in life observation / body weight / body weight + systemic / in life observation / body weight / body weight gain
rat [7] = details: Subchronic oral toxicity in rodents, sprague dawley, Feed, dose end: 90 day, group: systemic, systemic / in life observation / body weight / body weight + systemic / in life observation / body weight / body weight gain + systemic / in…
rat [8] = details: Combined chronic toxicity/carcinogenicity; sprague dawley; Oral; Feed; dose end: 104 week; group: systemic; systemic / pathology microscopic / lymph node / hemorrhage + systemic / pathology microscopic / lymph node / hemosiderosis + systemic / …
rat [9] = details: Multigenerational reproductive toxicity study, sprague dawley, Oral, Feed, dose end: 2 generation
[10] = systemic / clinical chemistry / [other] / [other] + systemic / clinical chemistry / albumin / albumin + systemic / clinical chemistry / …
[11] = systemic / in life observation / clinical signs / salivation
[12] = systemic / clinical chemistry / alanine aminotransferase (alt/sgpt) / alanine aminotransferase (alt/sgpt) + systemic / clinical chemistry / …
[13] = systemic / in life observation / clinical signs / lacrimation or red-colored tears + systemic / in life observation / clinical signs / …
[14] = systemic / in life observation / body weight / body weight + systemic / in life observation / clinical signs / dialated pupils + systemic / …
[15] = systemic / in life observation / clinical signs / dialated pupils + systemic / in life observation / clinical signs / distended abdomens + …
[16] = systemic / clinical chemistry / cholesterol / cholesterol + systemic / in life observation / clinical signs / emesis + systemic / in life …
[17] = group: developmental, systemic / in life observation / body weight / fetal weight
[18] = group: maternal, systemic / in life observation / body weight / body weight gain + systemic / in life observation / clinical signs / abnormal respiratory …
[19] = group: maternal, systemic / in life observation / clinical signs / defecation (diarrhea) + systemic / in life observation / clinical signs / oral discharge
[20] = systemic / pathology microscopic / skin / acanthosis
[21] = group: developmental, developmental / developmental malformation / bone / [other] + developmental / developmental malformation / bone / incomplete ossification + …
[22] = group: maternal, systemic / in life observation / clinical signs / abnormal respiratory sounds
[23] = group: maternal, systemic / in life observation / clinical signs / abnormal respiratory sounds + systemic / in life observation / body weight / body weight …
[24] = group: offspring, systemic / in life observation / body weight / offspring (pup) weight + systemic / in life observation / body weight / offspring (pup) …
[25] = group: parental, systemic / in life observation / body weight / body weight + systemic / in life observation / body weight / body weight gain + systemic / in…

## CSc1ccc(Oc2ccc(S(N)(=O)=O)cc2CN(C)C)cc1C
Rat [1]; [10]
  LOAEL: > 1000 mg/kg/day
  NOAEL: ≥ 1000 mg/kg/day
Rat [1]; [11]
  LEL: 250 mg/kg/day
  NEL: < 250 mg/kg/day
Rat [2]; [12]
  LOAEL: > 500 mg/kg/day
  NOAEL: ≥ 500 mg/kg/day
Rat [2]; [13]
  LEL: 5 mg/kg/day
  NEL: < 5 mg/kg/day
Dog [3]; [14]
  LOAEL: > 40 mg/kg/day
  NOAEL: ≥ 40 mg/kg/day
Dog [3]; [15]
  LEL: 4 mg/kg/day
  NEL: < 4 mg/kg/day

## CCCCCCCCCC[N+](C)(C)CCCCCCCCCC.[Cl-] [Didecyldimethylammonium chloride]
Dog [4]; [16]
  LOAEL: 20 mg/kg/day
  NEL: 3 mg/kg/day
  NOAEL: 10 mg/kg/day
Dog [4]; systemic / in life observation / clinical signs / emesis + systemic / in life observation / clinical signs / mucoid stools + systemic / in …
  LEL: 10 mg/kg/day
rabbit; [17]
  LEL: 10 mg/kg/day
  LOAEL: 10 mg/kg/day
  NEL: 3 mg/kg/day
  NOAEL: 3 mg/kg/day
rabbit; [18]
  LOAEL: 3 mg/kg/day
  NOAEL: 1 mg/kg/day
rabbit; [19]
  LEL: 1 mg/kg/day
  NEL: < 1 mg/kg/day
Rat [5]; [20]
  LEL: 2 mg/kg/day
  NEL: < 2 mg/kg/day
Rat [5]; systemic / pathology microscopic / skin / acanthosis + systemic / pathology microscopic / skin / inflammation
  LOAEL: 6 mg/kg/day
Rat [5]; systemic / pathology microscopic / skin / acanthosis + systemic / pathology microscopic / skin / inflammation + systemic / in life …
  NOAEL: 2 mg/kg/day
Rat [6]; [21]
  LEL: 20 mg/kg/day
  LOAEL: 20 mg/kg/day
  NEL: 10 mg/kg/day
  NOAEL: 10 mg/kg/day
Rat [6]; [22]
  LEL: 10 mg/kg/day
  LOAEL: 10 mg/kg/day
Rat [6]; [23]
  NEL: 1 mg/kg/day
  NOAEL: 1 mg/kg/day
mouse
  LEL: 156 mg/kg/day
  LOAEL: 156 mg/kg/day
  NEL: 76.3 mg/kg/day
  NOAEL: 76.3 mg/kg/day
Rat [7]
  LEL: 175 mg/kg/day
  LOAEL: 175 mg/kg/day
  NEL: 60.7 mg/kg/day
  NOAEL: 60.7 mg/kg/day
Rat [8]
  LEL: 64 mg/kg/day
  LOAEL: 64 mg/kg/day
  NEL: 32 mg/kg/day
  NOAEL: 32 mg/kg/day
Rat [9]; [24]
  LEL: 101 mg/kg/day
  LOAEL: 101 mg/kg/day
  NEL: 48.2 mg/kg/day
  NOAEL: 48.2 mg/kg/day
Rat [9]; [25]
  LEL: 101 mg/kg/day
  LOAEL: 101 mg/kg/day
  NEL: 48.2 mg/kg/day
  NOAEL: 48.2 mg/kg/day
